In patent US11345694B2, “Antibacterial compounds” (DISCUVA LTD., priority 2017, dated 2022) one finds MIC and IC50 data, which are given here for 14 compounds.

In brackets after ≈: the same amount, converted by molar mass. Some results are limits rather than exact numbers.

Assay [1] relates to E. coli NCTC 13441 (UPEC). In words: MIC broth microdilution. The format is cell-based, Escherichia coli. The conditions noted are these: Escherichia coli, NCTC13441. The method, then:
(§1) Minimum Inhibitory Concentrations (MICs) versus planktonic bacteria are determined by the broth microdilution procedure according to the guidelines of the Clinical and Laboratory Standards Institute (Clinical and Laboratory Standards Institute. Methods for Dilution Antimicrobial Susceptibility Tests for Bacteria That Grow Aerobically; Approved Standard-tenth Edition. CLSI document M07-A10, 2015). The broth dilution method involves a two-fold serial dilution of compounds in 96-well microtitre plates, giving a final concentration range of 0.39-200 μM and a maximum final concentration of 2% DMSO. The bacterial strains tested include Escherichia coli K12 (EC), E. coli NCTC 13441 (UPEC), Staphylococcus aureus ATCC 35556 (SA), Acinetobacter baumannii ATCC 17978 (AB), Pseudomonas aeruginosa ATCC 33359 (PA), Enterobacter cloacae DSM 30054 (Ed), Serratia marcescens SL1344 (Sm), Salmonella typhimurium XNAA5 (St), Klebsiella pneumoniae ATCC 10031 (KP2), K. pneumoniae NCTC 13438 (KP1), K. pneumoniae ATCC 700603 (KP3), Klebsiella pneumoniae ATCC 51504 (KP4), K. pneumoniae H154680676 (KP5), K. pneumoniae H154020667 (KP6), K. pneumoniae H154640784 (KP7), K. pneumoniae H154600588 (KP8), K. pneumoniae H154300688 (KP9), K. pneumoniae H151440671 (KP10). Strains are grown in cation-adjusted Müller-Hinton broth or on Luria Bertoni agar at 37° C. in an ambient atmosphere. The MIC is determined as the lowest concentration of compound that inhibits growth following a 20-24 hour incubation period.

Assay [2] concerns Acinetobacter baumannii ATCC 17978 (AB). Kind of assay: MIC broth microdilution. The format is cell-based. The following applies: ATCC17978. As for the experimental part:
as §1

In assay [3] the test system is Escherichia coli K12 (EC). In words: MIC broth microdilution. The format is cell-based. As for the experimental part:
as §1

Assay [4] concerns Klebsiella pneumoniae ATCC 10031 (KP2). Kind of assay: MIC broth microdilution. The following applies: ATCC10031. The format is cell-based. The method, then:
as §1

Assay [5] relates to Pseudomonas aeruginosa ATCC 33359 (PA). In words: MIC broth microdilution. The following applies: ATCC33359. The format is cell-based. As for the experimental part: as §1
Assay [6] concerns Staphylococcus aureus ATCC 35556 (SA). Kind of assay: MIC broth microdilution. The format is cell-based. The conditions noted are these: ATCC35556. As for the experimental part:
as §1

The test system of assay [7] is K. pneumoniae NCTC 13438 (KP1). In words: MIC broth microdilution. The format is cell-based, Klebsiella pneumoniae. The following applies: Klebsiella pneumoniae, NCTC13438. As for the experimental part: as §1
Assay [8] has as its system human hepatocarcinoma cell line ATCC HB-8065 (HepG2). In words: Human cell viability (CellTiter-Glo). The format is cell-based. The conditions noted are these: Homo sapiens; HepG2 cells, 24 h incubation, CellTiter-Glo luminescence, 0.2-100 μM; read-out: IC50 values against the HepG2 cell line. As for the experimental part:
Compounds are assessed for potential non-specific cytotoxic effects against the human hepatocarcinoma cell line ATCC HB-8065 (HepG2). HepG2 cells are seeded at 20,000 cells/well in 96-well microtitre plates in minimal essential medium (MEM) supplemented with a final concentration of 10% FBS. After 24 h, compound dilutions are prepared in MEM supplemented with a final concentration of 1% FBS, and added to the cells. Compounds are tested in two-fold serial dilutions over a final concentration range of 0.2-100 μM in a final DMSO concentration of 1% vol/vol. Thioridazine is used as a positive control. Cells are incubated with compound at 37° C. and 5% CO2 for a further 24 h, after which time the CellTiter-Glo reagent (Promega) is added. Luminescence is measured on a Perkin Elmer Envision plate reader. Data are analysed using a 4 parameter logistic regression to determine the concentration of compound that inhibits cell viability by fifty percent (IC50).

Consider `Nc1cc(-c2[nH]c(N)nc2-c2ccc3c(c2)CCO3)ccn1` [Example 8, 4-(2-Amino-4-(2,3-dihydrobenzofuran-5-yl)-1H-imidazol-5-yl)pyridin-2-amine], for which the minimal inhibitory concentration (MIC) was ≤ 1 µM in assay [1]; > 100 µM in assay [2]; ≤ 1 µM in assay [3]; ≤ 1 µM in assay [4]; > 100 µM in assay [5]; > 100 µM in assay [6]. Further, the minimum inhibitory concentration (MIC) in assay [7] was 10 to 100 µM (≈ 2.93 to 29.3 µg/mL). Also, in assay [8], the IC50 is > 100 µM.

Regarding `Cc1cc(-c2[nH]c(N)nc2-c2ccc3c(c2)NC(=O)CO3)ccn1` [Example 51, 6-(2-Amino-5-(2-methylpyridin-4-yl)-1H-imidazol-4-yl)-2H-benzo[b][1,4]oxazin-3(4H)-one], the MIC was 1 to 10 µM (≈ 0.321 to 3.21 µg/mL) in assay [1]; > 100 µM in assay [2]; 1 to 10 µM (≈ 0.321 to 3.21 µg/mL) in assay [3]; ≤ 1 µM in assay [4]; > 100 µM in assay [5]; > 100 µM in assay [6]. The compound further returned a minimal inhibitory concentration (MIC) in assay [7] of 10 to 100 µM (≈ 3.21 to 32.1 µg/mL). Further, in assay [8], the IC50 is > 100 µM.

On to `Cc1cc(-c2[nH]c(CN)nc2-c2ccc3c(c2)OCCO3)ccn1` [Example 87, (4-(2,3-Dihydrobenzo[b][1,4]dioxin-6-yl)-5-(2-methylpyridin-4-yl)-1H-imidazol-2-yl)methanamine], for which the MIC is 1 to 10 µM (≈ 0.322 to 3.22 µg/mL) in assay [1]; > 100 µM in assay [2]; 1 to 10 µM (≈ 0.322 to 3.22 µg/mL) in assay [3]; ≤ 1 µM in assay [4]; > 100 µM in assay [5]; > 100 µM in assay [6]. In assay [7], this compound registered an MIC of 10 to 100 µM (≈ 3.22 to 32.2 µg/mL). The IC50 in assay [8] is > 100 µM.

With `Nc1nc(-c2ccc3c(c2)CCO3)c(-c2ccncc2)[nH]1` [Example 38, 4-(2,3-Dihydrobenzofuran-5-yl)-5-(pyridin-4-yl)-1H-imidazol-2-amine], the MIC in assay [1] was ≤ 1 µM; in assay [2] it was > 100 µM; in assay [3] it was ≤ 1 µM; in assay [4], ≤ 1 µM; in assay [5] it was > 100 µM; in assay [6] it was > 100 µM. The compound further had an MIC in assay [7] of 1 to 10 µM (≈ 0.278 to 2.78 µg/mL). Further, the concentration for half-maximal inhibition (IC50) in assay [8] was > 100 µM.

`Nc1nc(-c2ccc3c(c2)NCCO3)c(-c2ccncc2)[nH]1` [Example 39, 4-(3,4-Dihydro-2H-benzo[b][1,4]oxazin-6-yl)-5-(pyridin-4-yl)-1H-imidazol-2-amine]: the MIC is ≤ 1 µM in assay [1]; > 100 µM in assay [2]; ≤ 1 µM in assay [3]; ≤ 1 µM in assay [4]; > 100 µM in assay [5]; > 100 µM in assay [6]. The compound further registered an MIC in assay [7] of 10 to 100 µM (≈ 2.93 to 29.3 µg/mL). In assay [8], the IC50 is > 100 µM.

Turning to `COc1ccc(-c2[nH]c(N)nc2-c2ccnc(C)c2)cc1OC` [Example 1, 5-(3,4-Dimethoxyphenyl)-4-(2-methylpyridin-4-yl)-1H-imidazol-2-amine], the MIC was 10 to 100 µM (≈ 3.1 to 31 µg/mL) in assay [1]; > 100 µM in assay [2]; 10 to 100 µM (≈ 3.1 to 31 µg/mL) in assay [3]; ≤ 1 µM in assay [4]; > 100 µM in assay [5]; > 100 µM in assay [6]. In assay [7], the MIC was > 100 µM. Moreover, the IC50 in assay [8] is > 100 µM.

Take `CNc1nc(-c2ccc3c(c2)OCCO3)c(-c2ccnc(C)c2)[nH]1` [Example 74, 4-(2,3-dihydrobenzo[b][1,4]dioxin-6-yl)-N-methyl-5-(2-methylpyridin-4-yl)-1H-imidazol-2-amine]: the minimal inhibitory concentration (MIC) in assay [1] was 1 to 10 µM (≈ 0.322 to 3.22 µg/mL); in assay [2] it was > 100 µM; in assay [3] it was 1 to 10 µM (≈ 0.322 to 3.22 µg/mL); in assay [4], ≤ 1 µM; in assay [5], > 100 µM; in assay [6], > 100 µM. In addition, the MIC in assay [7] was 10 to 100 µM (≈ 3.22 to 32.2 µg/mL). Further, the IC50 in assay [8] is > 100 µM.

Turning to `Cc1cc(-c2sc(N)nc2-c2ccc3c(c2)OCCO3)ccn1` [Example 80, 4-(2,3-Dihydrobenzo[b][1,4]dioxin-6-yl)-5-(2-methylpyridin-4-yl)thiazol-2-amine], the MIC in assay [1] was > 100 µM; in assay [2], > 100 µM; in assay [3] it was > 100 µM; in assay [4], 1 to 10 µM (≈ 0.325 to 3.25 µg/mL); in assay [5] it was > 100 µM; in assay [6], > 100 µM. In addition, the minimum inhibitory concentration (MIC) in assay [7] was > 100 µM. Moreover, the IC50 in assay [8] was > 100 µM.

For `CNc1cc(-c2[nH]c(N)nc2-c2ccc3c(c2)NCCO3)ccn1` [Example 40, 4-(2-Amino-4-(3,4-dihydro-2H-benzo[b][1,4]oxazin-6-yl)-1H-imidazol-5-yl)-N-methylpyridin-2-amine], the MIC in assay [1] is ≤ 1 µM; in assay [2], > 100 µM; in assay [3] it was 1 to 10 µM (≈ 0.322 to 3.22 µg/mL); in assay [4], ≤ 1 µM; in assay [5] it was > 100 µM; in assay [6], > 100 µM. In assay [7], the MIC was in the range of 1 to 10 µM (≈ 0.322 to 3.22 µg/mL). Moreover, in assay [8], the concentration for half-maximal inhibition (IC50) is > 100 µM.

On to `Nc1nc(-c2ccc3c(c2)NCCO3)c(-c2ccnc(C(F)(F)F)c2)[nH]1` [Example 46, 4-(3,4-Dihydro-2H-benzo[b][1,4]oxazin-6-yl)-5-(2-(trifluoromethyl)pyridin-4-yl)-1H-imidazol-2-amine], for which the MIC in assay [1] was 1 to 10 µM (≈ 0.361 to 3.61 µg/mL); in assay [2], > 100 µM; in assay [3] it was 1 to 10 µM (≈ 0.361 to 3.61 µg/mL); in assay [4], ≤ 1 µM; in assay [5], > 100 µM; in assay [6] it was > 100 µM. The MIC in assay [7] lay in the range of 10 to 100 µM (≈ 3.61 to 36.1 µg/mL). Also, the 50% inhibitory concentration (IC50) in assay [8] is > 100 µM.

Consider `Cc1cc(-c2[nH]c(N)nc2-c2ccc3c(c2F)OCCO3)ccn1` [Example 60, 4-(5-Fluoro-2,3-dihydrobenzo[b][1,4]dioxin-6-yl)-5-(2-methylpyridin-4-yl)-1H-imidazol-2-amine], for which the MIC was 1 to 10 µM (≈ 0.326 to 3.26 µg/mL) in assay [1]; > 100 µM in assay [2]; 1 to 10 µM (≈ 0.326 to 3.26 µg/mL) in assay [3]; ≤ 1 µM in assay [4]; > 100 µM in assay [5]; > 100 µM in assay [6]. The compound further gave an MIC in assay [7] of 10 to 100 µM (≈ 3.26 to 32.6 µg/mL). Further, the IC50 in assay [8] was > 100 µM.

Take `Cc1cc(-c2[nH]c(N)nc2-c2ccc(OCC#N)cc2)ccn1` [Example 35, 2-(4-(2-Amino-5-(2-methylpyridin-4-yl)-1H-imidazol-4-yl)phenoxy)acetonitrile]: the MIC in assay [1] was 1 to 10 µM (≈ 0.305 to 3.05 µg/mL); in assay [2], > 100 µM; in assay [3] it was 1 to 10 µM (≈ 0.305 to 3.05 µg/mL); in assay [4] it was ≤ 1 µM; in assay [5], > 100 µM; in assay [6], > 100 µM. The compound further displayed an MIC in assay [7] of 10 to 100 µM (≈ 3.05 to 30.5 µg/mL). Besides, in assay [8], the IC50 is > 100 µM.

Turning to `Cc1cc(-c2[nH]c(N)nc2-c2cc3c(cc2F)OCC(=O)N3)ccn1` [Example 54, 6-(2-Amino-5-(2-methylpyridin-4-yl)-1H-imidazol-4-yl)-7-fluoro-2H-benzo[b][1,4]oxazin-3(4H)-one], the MIC in assay [1] was 1 to 10 µM (≈ 0.339 to 3.39 µg/mL); in assay [2], > 100 µM; in assay [3], 1 to 10 µM (≈ 0.339 to 3.39 µg/mL); in assay [4], ≤ 1 µM; in assay [5] it was > 100 µM; in assay [6], > 100 µM. For the same compound, the MIC in assay [7] was in the range of 10 to 100 µM (≈ 3.39 to 33.9 µg/mL). Moreover, the IC50 in assay [8] was > 100 µM.

`Cc1cc(-c2[nH]c(N)nc2-c2ccc3c(c2)N(C2CCCC2)CCO3)ccn1` [Example 94, 4-(4-Cyclopentyl-3,4-dihydro-2H-benzo[b][1,4]oxazin-6-yl)-5-(2-methylpyridin-4-yl)-1H-imidazol-2-amine]: the MIC in assay [1] is ≤ 1 µM; in assay [2], > 100 µM; in assay [3], ≤ 1 µM; in assay [4], ≤ 1 µM; in assay [5], > 100 µM; in assay [6], > 100 µM. The MIC in assay [7] was in the range of 1 to 10 µM (≈ 0.375 to 3.75 µg/mL). The IC50 in assay [8] was 25 to 100 µM.
